How the values were obtained:
Format in all cases: in vivo
[1] = test system: Hemp Sesbania; assay: Pre-emergent herbicidal activity (Table III)
Method: (§1) The pre-emergence tests are conducted as follows:
(§2) A good grade of top soil is placed in aluminum pans and compacted to a depth of three-eighths to one-half inch from the top of the pan. On the top of the soil is placed a predetermined number of seeds or vegetative propagules of various plant species. The soil required to level fill the pans after seeding or adding vegetative propagules is weighed into a pan. A known amount of the active ingredient applied in a solvent or as a wettable powder suspension and the soil are thoroughly mixed, and used as a cover layer for prepared pans. After treatment, the pans are moved into a greenhouse bench where they are watered from below as needed to give adequate moisture for germination and growth.
(§3) Approximately 2-3 weeks after seeding and treating, the plants are observed and the results recorded. The herbicidal rating is obtained by means of fixed scale based on the percent injury of each plant species. The ratings are defined as follows: […]
(§4) The compounds were further tested by utilizing the above procedure on the following plant species: […]

[2] = test system: Crabgrass; assay: Pre-emergent herbicidal activity (Table III)
Method: as §1, §2, §3, §4

[3] = test system: Sugarbeet; assay: Pre-emergent herbicidal activity (Table III)
Method: as §1, §2, §3, §4

[4] = test system: Sorghum; assay: Pre-emergent herbicidal activity (Table III)
Method: as §1, §2, §3, §4

[5] = test system: Wild Buckwheat; assay: Pre-emergent herbicidal activity (Table III)
Method: as §1, §2, §3, §4

[6] = test system: Smartweed; assay: Pre-emergent herbicidal activity (Table III)
Method: as §1, §2, §3, §4

[7] = test system: Rice; assay: Pre-emergent herbicidal activity (Table III)
Method: as §1, §2, §3, §4

[8] = test system: Wheat; assay: Pre-emergent herbicidal activity (Table III)
Method: as §1, §2, §3, §4

[9] = test system: Downy Brome; assay: Pre-emergent herbicidal activity (Table III)
Method: as §1, §2, §3, §4

[10] = test system: Soybean; assay: Pre-emergent herbicidal activity (Table III)
Method: as §1, §2, §3, §4

[11] = test system: Cocklebur; assay: Pre-emergent herbicidal activity (Table III)
Method: as §1, §2, §3, §4

[12] = test system: Barnyardgrass; assay: Pre-emergent herbicidal activity (Table III)
Method: as §1, §2, §3, §4

[13] = test system: Lambsquarters; assay: Pre-emergent herbicidal activity (Table III)
Method: as §1, §2, §3, §4

[14] = test system: Panicum; assay: Pre-emergent herbicidal activity (Table III)
Method: as §1, §2, §3, §4

[15] = test system: Velvetleaf; assay: Pre-emergent herbicidal activity (Table III)
Method: as §1, §2, §3, §4

[16] = test system: Morningglory; assay: Pre-emergent herbicidal activity (Table III)
Method: as §1, §2, §3, §4

[17] = test system: Quackgrass; assay: Pre-emergent herbicidal activity (Table II); settings: 2-3 weeks
Method: as §1, §2, §3
(§5) The plant species utilized in one set of tests, the data for which are shown in Table II, are identified by letter in accordance with the following legend: […]

[18] = test system: Smartweed; assay: Pre-emergent herbicidal activity (Table II); settings: 2-3 weeks
Method: as §1, §2, §3, §5

[19] = test system: Downy Brome; assay: Pre-emergent herbicidal activity (Table II); settings: 2-3 weeks
Method: as §1, §2, §3, §5

[20] = test system: Cocklebur; assay: Pre-emergent herbicidal activity (Table II); settings: 2-3 weeks
Method: as §1, §2, §3, §5

[21] = test system: Barnyardgrass; assay: Pre-emergent herbicidal activity (Table II); settings: 2-3 weeks
Method: as §1, §2, §3, §5

[22] = test system: Canada Thistle; assay: Pre-emergent herbicidal activity (Table II); settings: 2-3 weeks
Method: as §1, §2, §3, §5

[23] = test system: Lambsquarters; assay: Pre-emergent herbicidal activity (Table II); settings: 2-3 weeks
Method: as §1, §2, §3, §5

[24] = test system: Johnsongrass; assay: Pre-emergent herbicidal activity (Table II); settings: 2-3 weeks
Method: as §1, §2, §3, §5

[25] = test system: Yellow Nutsedge; assay: Pre-emergent herbicidal activity (Table II); settings: 2-3 weeks
Method: as §1, §2, §3, §5

[26] = test system: Velvetleaf; assay: Pre-emergent herbicidal activity (Table II); settings: 2-3 weeks
Method: as §1, §2, §3, §5

[27] = test system: Morningglory; assay: Pre-emergent herbicidal activity (Table II); settings: 2-3 weeks
Method: as §1, §2, §3, §5
Also: ranges in brackets are in %.

COc1cccc(C)c1N(Cn1c(=O)sc2ccccc21)C(=O)CCl [Example 2, N-(2'-methoxy-6'-methyl)-N-[(2-oxo-3(2H)-benzothiazolyl)methyl]-2-chloroacetanilide]
Herbicidal rating ([1]; 0.0112 kg/ha): 0 (0-24) | Herbicidal rating ([1]; 0.056 kg/ha): 0 (0-24) | Herbicidal rating ([1]; 0.28 kg/ha): 0 (0-24) | Herbicidal rating ([1]; 1.12 kg/ha): 0 (0-24) | Herbicidal rating ([1]; 5.6 kg/ha): 2 (50-74) | Herbicidal rating ([2]; 0.0112 kg/ha): 0 (0-24) | Herbicidal rating ([2]; 0.056 kg/ha): 0 (0-24) | Herbicidal rating ([2]; 0.28 kg/ha): 1 (25-49) | Herbicidal rating ([2]; 1.12 kg/ha): 3 (75-100) | Herbicidal rating ([2]; 5.6 kg/ha): 3 (75-100) | Herbicidal rating ([3]; 0.0112 kg/ha): 0 (0-24) | Herbicidal rating ([3]; 0.056 kg/ha): 0 (0-24) | Herbicidal rating ([3]; 0.28 kg/ha): 0 (0-24) | Herbicidal rating ([3]; 1.12 kg/ha): 0 (0-24) | Herbicidal rating ([3]; 5.6 kg/ha): 0 (0-24) | Herbicidal rating ([4]; 0.0112 kg/ha): 0 (0-24) | Herbicidal rating ([4]; 0.056 kg/ha): 0 (0-24) | Herbicidal rating ([4]; 0.28 kg/ha): 0 (0-24) | Herbicidal rating ([4]; 1.12 kg/ha): 1 (25-49) | Herbicidal rating ([4]; 5.6 kg/ha): 1 (25-49) | Herbicidal rating ([5]; 0.0112 kg/ha): 0 (0-24) | Herbicidal rating ([5]; 0.056 kg/ha): 0 (0-24) | Herbicidal rating ([5]; 0.28 kg/ha): 0 (0-24) | Herbicidal rating ([5]; 1.12 kg/ha): 0 (0-24) | Herbicidal rating ([5]; 5.6 kg/ha): 0 (0-24) | Herbicidal rating ([6]; 0.0112 kg/ha): 0 (0-24) | Herbicidal rating ([6]; 0.056 kg/ha): 0 (0-24) | Herbicidal rating ([6]; 0.28 kg/ha): 1 (25-49) | Herbicidal rating ([6]; 1.12 kg/ha): 2 (50-74) | Herbicidal rating ([6]; 5.6 kg/ha): 2 (50-74) | Herbicidal rating ([7]; 0.0112 kg/ha): 0 (0-24) | Herbicidal rating ([7]; 0.056 kg/ha): 0 (0-24) | Herbicidal rating ([7]; 0.28 kg/ha): 1 (25-49) | Herbicidal rating ([7]; 1.12 kg/ha): 3 (75-100) | Herbicidal rating ([7]; 5.6 kg/ha): 3 (75-100) | Herbicidal rating ([8]; 0.0112 kg/ha): 0 (0-24) | Herbicidal rating ([8]; 0.056 kg/ha): 0 (0-24) | Herbicidal rating ([8]; 0.28 kg/ha): 0 (0-24) | Herbicidal rating ([8]; 1.12 kg/ha): 0 (0-24) | Herbicidal rating ([8]; 5.6 kg/ha): 2 (50-74) | Herbicidal rating ([9]; 0.0112 kg/ha): 0 (0-24) | Herbicidal rating ([9]; 0.056 kg/ha): 0 (0-24) | Herbicidal rating ([9]; 0.28 kg/ha): 1 (25-49) | Herbicidal rating ([9]; 1.12 kg/ha): 3 (75-100) | Herbicidal rating ([9]; 5.6 kg/ha): 3 (75-100) | Herbicidal rating ([10]; 0.0112 kg/ha): 0 (0-24) | Herbicidal rating ([10]; 0.056 kg/ha): 0 (0-24) | Herbicidal rating ([10]; 0.28 kg/ha): 0 (0-24) | Herbicidal rating ([10]; 1.12 kg/ha): 0 (0-24) | Herbicidal rating ([10]; 5.6 kg/ha): 0 (0-24) | Herbicidal rating ([11]; 0.0112 kg/ha): 0 (0-24) | Herbicidal rating ([11]; 0.056 kg/ha): 0 (0-24) | Herbicidal rating ([11]; 0.28 kg/ha): 0 (0-24) | Herbicidal rating ([11]; 1.12 kg/ha): 0 (0-24) | Herbicidal rating ([11]; 5.6 kg/ha): 0 (0-24) | Herbicidal rating ([12]; 0.0112 kg/ha): 0 (0-24) | Herbicidal rating ([12]; 0.056 kg/ha): 2 (50-74) | Herbicidal rating ([12]; 0.28 kg/ha): 3 (75-100) | Herbicidal rating ([12]; 1.12 kg/ha): 3 (75-100) | Herbicidal rating ([12]; 5.6 kg/ha): 3 (75-100) | Herbicidal rating ([13]; 0.0112 kg/ha): 0 (0-24) | Herbicidal rating ([13]; 0.056 kg/ha): 0 (0-24) | Herbicidal rating ([13]; 0.28 kg/ha): 2 (50-74) | Herbicidal rating ([13]; 1.12 kg/ha): 3 (75-100) | Herbicidal rating ([13]; 5.6 kg/ha): 1 (25-49) | Herbicidal rating ([14]; 0.0112 kg/ha): 0 (0-24) | Herbicidal rating ([14]; 0.056 kg/ha): 2 (50-74) | Herbicidal rating ([14]; 0.28 kg/ha): 1 (25-49) | Herbicidal rating ([14]; 1.12 kg/ha): 3 (75-100) | Herbicidal rating ([14]; 5.6 kg/ha): 3 (75-100) | Herbicidal rating ([15]; 0.0112 kg/ha): 0 (0-24) | Herbicidal rating ([15]; 0.056 kg/ha): 0 (0-24) | Herbicidal rating ([15]; 0.28 kg/ha): 0 (0-24) | Herbicidal rating ([15]; 1.12 kg/ha): 0 (0-24) | Herbicidal rating ([15]; 5.6 kg/ha): 0 (0-24) | Herbicidal rating ([16]; 0.0112 kg/ha): 0 (0-24) | Herbicidal rating ([16]; 0.056 kg/ha): 0 (0-24) | Herbicidal rating ([16]; 0.28 kg/ha): 0 (0-24) | Herbicidal rating ([16]; 1.12 kg/ha): 0 (0-24) | Herbicidal rating ([16]; 5.6 kg/ha): 0 (0-24) | Herbicidal rating ([17]; 5.6 kg/ha): 2 (50-74) | Herbicidal rating ([17]; 11.2 kg/ha): 1 (25-49) | Herbicidal rating ([18]; 5.6 kg/ha): 0 (0-24) | Herbicidal rating ([18]; 11.2 kg/ha): 0 (0-24) | Herbicidal rating ([19]; 5.6 kg/ha): 1 (25-49) | Herbicidal rating ([19]; 11.2 kg/ha): 2 (50-74) | Herbicidal rating ([20]; 5.6 kg/ha): 0 (0-24) | Herbicidal rating ([20]; 11.2 kg/ha): 0 (0-24) | Herbicidal rating ([21]; 5.6 kg/ha): 3 (75-100) | Herbicidal rating ([21]; 11.2 kg/ha): 3 (75-100) | Herbicidal rating ([22]; 5.6 kg/ha): 0 (0-24) | Herbicidal rating ([22]; 11.2 kg/ha): 0 (0-24) | Herbicidal rating ([23]; 5.6 kg/ha): 1 (25-49) | Herbicidal rating ([23]; 11.2 kg/ha): 1 (25-49) | Herbicidal rating ([24]; 5.6 kg/ha): 0 (0-24) | Herbicidal rating ([24]; 11.2 kg/ha): 0 (0-24) | Herbicidal rating ([25]; 5.6 kg/ha): 3 (75-100) | Herbicidal rating ([25]; 11.2 kg/ha): 3 (75-100) | Herbicidal rating ([26]; 5.6 kg/ha): 0 (0-24) | Herbicidal rating ([26]; 11.2 kg/ha): 0 (0-24) | Herbicidal rating ([27]; 5.6 kg/ha): 0 (0-24) | Herbicidal rating ([27]; 11.2 kg/ha): 0 (0-24)
